In US8546095B2, “Methods for determination of calcineurin activity and uses in predicting therapeutic outcomes” (Emory University, priority 2007, dated 2013):
Entries after “also recorded” stand apart in the source; their conditions may differ. Blank lines part the entries; values can stand above or below the compound they belong to.

How the values were obtained:
calcineurin [1] = experiment: Fluorimetric calcineurin assay in cultured primary renal fibroblasts
Method: FIG. 16A: Cultured renal fibroblasts were treated with a variety of stimuli including arginine vasopressin (AVP), dexamethasone, and phorbol myristate acetate (PMA) to induce calcineurin activity. In addition, some cells were pre-treated with calcineurin inhibitors prior to the addition of PMA. Cells were lysed according to previously established methods and then calcineurin activity was determined. Data shown is the mean+/−SEM of triplicate samples compared to a standard curve. […] Tissues were lysed according to previously established methods and calcineurin activity determined. Data shown are the mean+/−SEM of triplicate samples compared to a standard curve.
When the absorbance values obtained were compared to a standard curve of recombinant calcineurin run simultaneously, a determination of calcineurin activity in each condition can be made.

recombinant calcineurin = target: T1, recombinant calcineurin (Homo sapiens, UniProt Q08209); experiment: Fluorimetric calcineurin assay with recombinant calcineurin and standard controls; assay type: biochemical; conditions: 0.2 ng recombinant calcineurin, ANOVA
T1 construct: purchased Calbiochem (San Diego, Calif.)
Method: Reactions using 0.2 ng of recombinant calcineurin along with standard controls for calcineurin activity, including heat inactivation of the recombinant enzyme, addition of an autoinhibitory peptide, absence of calcium, and chelation of calcium with EGTA were investigated.
Recombinant calcineurin was from Calbiochem (San Diego, Calif.), and all other chemicals were obtained from Sigma (St Louis, Mo.). The RII peptide, Fluoresceinyl-[…]frican-AmericanE, and its phosphorylated analog (Fluoresceinyl-[…]pSVAfrican-AmericanE where pS=L-phosphoserine) were synthesized by Fmoc-based solid-phase peptide synthesis using model Liberty microwave-assisted peptide synthesizer (CEM Corporation, Matthews, N.C.). The peptides were purified to apparent homogeneity by reversed-phase HPLC and their masses were confirmed by mass spectrometry. Peptides were diluted in: Tris 50 mM, 100 mM NaCl, 0.5 mM DTT, and 0.1 mg/ml bovine serum albumen to a final concentration of 30 ng/ml. Reaction buffer consisted of 0.1 mg/ml BSA, 35 mM Tris pH 7.5, 25 mM NaCl, 2.0 mM MgCl2, 270 μM DTT, 500 μM EDTA, 419 nM Okadaic acid (in 0.63% ethanol), 25 mM CaCl2. Titanium oxide plates were pre-incubated with a binding buffer consisting of 0.1% acetic acid in 10% acetonitrile. […]

calcineurin [2] = experiment: Fluorimetric calcineurin assay in isolated PBMCs (PMA or anti-CD3 stimulation, in vitro calcineurin inhibitors); assay type: cell-based, human
Method: It was also shown that the fold change in calcineurin activity in response to anti-CD3 was sensitive to tacrolimus inhibition. Thus, PBMCs from control subjects were incubated with increasing amounts of tacrolimus before the anti-CD3 stimulation and the calcineurin activity was then measured.
It was further determined whether in vitro addition of calcineurin inhibitors could further inhibit calcineurin activity in samples from transplant subjects.
(i) Collection of samples. Heparinized blood can be obtained by routine phlebotomy and PBMC isolated and frozen in 10% DMSO. Samples will be thawed and viability confirmed prior to treatment.
(ii) Treatment of T cells. Three parameters of calcineurin activity: 1) base-line levels of the enzyme; 2) the increase in calcineurin in response to general stimuli; and, 3) the response of calcineurin to T cell receptor specific activation.
PBMCs were thawed, viable cells counted and then separated into aliquots of about 2×10^5 cells. Based on preliminary experiments, samples were treated with anti-CD3 (Muromonab, 10 μg/ml) antibodies for 15 mins at 37° C. Based on preliminary dose and time curves, PMA was added to aliquots for 5 mins. Control samples were included with either no treatment or adjuvant-only (DMSO). These manipulations yielded base-line activity, maximum non-specific activation, and TCR-stimulated activity.
(iii) 20 μl diluted peptide substrate, 20 μl of reaction buffer, and 20 μl of sample were loaded into individual wells of a 96-well plate and incubated at 30° C. for 10 minutes. During the reaction time, a 96-well plate with titanium oxide-coated wells was prepared by adding 50 μl binding buffer (0.1% acetic acid in 10% acetonitrile) per well. After the incubation period, reactions were transferred into prepared titanium oxide-coated wells following by gentle shaking for 5 minutes. The contents of each well were then removed to a white 96-well plate preloaded with 20 μl of 3N ammonium hydroxide.

calcineurin [3] = experiment: Radiometric calcineurin assay, basal activity in isolated CD3+/4+ T cells treated in vitro; assay type: cell-based, human; conditions: for inhibition of basal calcineurin activity: 5 ng/ml
Method: (§1) 40 mLs of heparinized blood was collected from the study participants. T cells were then isolated using the Prepacyte SC reagent (BioE WBP2000 St. Paul Minn.) antibody negative selection and Vitalyse (BioE KI-135) treated to eliminate remaining erythrocytes. Cells were pelleted by centrifugation, washed with 1× phosphate-buffered saline, and resuspended in RPMI 1640 containing penicillin/streptomycin antibiotics, 10% fetal calf serum, 2 mM 1-glutamine, 25 mM glucose, and 1 mM sodium pyruvate.
(§2) Calcineurin activity was determined using an in vitro assay as described in Fruman et al, Methods in Enzymology 9, 146-154 (1996) and Lea et al., J Am Soc Nephrol 13, 1750-1756 (2002), both of which are incorporated herein by reference in their entireties. Following treatment, isolated lymphocytes were pelleted and then re-suspended in calcineurin buffer ([…], 250 μM KCl, 10 mg/ml BSA, 5 mg/ml DTT, pH 7.5). Cells were then lysed by three cycles of freeze-thawing in liquid nitrogen and a 37° C. water bath. The concentration of harvested proteins was determined by the BCA method (Pierce Biotechnology, Rockford, Ill.) and then […] of sample was incubated with equal volumes of calcineurin reaction buffer (100 nM calmodulin, 0.1 mM CaCl, 25 μgs calyculin, 3 μg cold RII peptide) and 30 γ^32P[ATP]-labeled RII peptide substrate.
(§3) The reaction was allowed to proceed for 10 minutes, and then 10 mgs/ml charcoal/TCA solution was added to each sample to stop the reaction. Finally, samples were passed through millipore filtration buckets, scintillation fluid added, and the amount of released phosphates read in an automated counter. Reactions were performed in triplicate and final data for subjects were calculated as the mean of triplicate samples minus control reactions to normalize for background.
To ensure that calcineurin activity was measured in a uniform population of cells, experiments were performed in isolated lymphocytes that were enriched for CD3^+/4^+ T cells using erythrocyte lysis, gradient centrifugation, and Prepacyte SC reagent (BioE, St. Paul Minn.).
First, T cells were isolated from control subjects and were then treated in vitro with vehicle (DMSO) or 5 ng/ml tacrolimus for 15 minutes.

calcineurin [4] = experiment: Radiometric calcineurin assay in isolated T cells after T cell receptor stimulation with anti-CD3/anti-CD28 antibodies, with or without inhibitor pre-treatment; assay type: cell-based, human; conditions: for effect of pre-treatment on anti-CD3/anti-CD28-stimulated calcineurin activity (words): control T cells, tacrolimus/FK506 5 ng/ml, cyclosporine A printed as 500 ng/ml, 5 μg/ml or 5 mg/ml
Method: as §1, §2, §3
T cell isolates were stimulated for 15 minutes with multiple agents including calcium ionophore, phorbal myristate […] (PMA), and anti-CD3/CD28 antibodies. […] Next, T cells were pre-treated for 30 minutes with cyclosporine (5 mg/ml) or FK506 (5 ng/ml) and then CD3/CD28-mediated stimulation was measured.

[5] = human, in vivo
Method: Stimulation of calcineurin activity was also determined for caucasian and African-American transplant patients. […] Trough blood levels of FK506 for both caucasian and African-American transplant patients were obtained at the time of T cell isolation.

Compound: NC(=O)CC[C@@H]1NC(=O)[C@H](Cc2ccccc2)NC(=O)[C@H](Cc2ccc(O)cc2)NC(=O)[C@@H](N)CSSC[C@@H](C(=O)N2CCC[C@H]2C(=O)N[C@@H](CCCN=C(N)N)C(=O)NCC(N)=O)NC(=O)[C@H](CC(N)=O)NC1=O [Arginine vasopressin (AVP), arginine vasopressin]
stimulation of calcineurin activity (calcineurin [1]): significantly stimulated calcineurin activity

Compound: O=C(O)CN(CCOCCOCCN(CC(=O)O)CC(=O)O)CC(=O)O [EGTA]
effect on dephosphorylation by recombinant calcineurin (recombinant calcineurin): significantly reduced

Compound: CCCCCCCCCCCCCC(=O)O[C@@H]1[C@@H](C)[C@@]2(O)[C@@H](C=C(CO)C[C@]3(O)C(=O)C(C)=C[C@@H]23)[C@@H]2C(C)(C)[C@]12OC(C)=O [PMA, phorbol myristate acetate]
stimulation of calcineurin activity (calcineurin [2]; control PBMCs): stimulated calcineurin activity in control cells
stimulation of calcineurin activity (calcineurin [2]; transplant recipient-derived PBMCs): not in the transplant recipient-derived PBMC samples
stimulation of calcineurin activity (calcineurin [1]): significantly stimulated calcineurin activity

mean plasma level [5]: 11.4 ng/mL
Compound: C=CC[C@@H]1/C=C(\C)C[C@H](C)C[C@H](OC)[C@H]2O[C@@](O)(C(=O)C(=O)N3CCCC[C@H]3C(=O)O[C@H](/C(C)=C/[C@@H]3CC[C@@H](O)[C@H](OC)C3)[C@H](C)[C@@H](O)CC1=O)[C@H](C)C[C@@H]2OC [tacrolimus]
effect on basal calcineurin activity (calcineurin [3]; control T cells (N=81), 5.0 ng/ml in vitro, p<0.001): significantly decreased calcineurin activity
calcineurin activity after in vitro tacrolimus (calcineurin [3]; control subjects' T cells, 5 ng/ml for 15 minutes, vehicle (DMSO) 913±6): 662±6 fmole/μg protein/min
inhibition of basal calcineurin activity (calcineurin [3]; female control subjects): 30±4%
inhibition of basal calcineurin activity (calcineurin [3]; male control subjects): 27±4%
effect of pre-treatment on anti-CD3/CD28-stimulated calcineurin activity (calcineurin [4]; African-American control subjects, listed as FK506): neither cyclosporine A nor FK506 significantly reduced calcineurin activity; also recorded: neither cyclosporine nor FK506 pre-treatment inhibited calcineurin activity
effect of pre-treatment on anti-CD3/CD28-stimulated calcineurin activity (calcineurin [4]; caucasian control subjects): inhibited
effect of pre-treatment on anti-CD3/anti-CD28-stimulated calcineurin activity (words) (calcineurin [4]): blocked the CD3/CD28 stimulation; also recorded: blocked the rise in calcineurin activity; also recorded: effective at blocking the induction
effect of pre-treatment on anti-CD3/anti-CD28-stimulated calcineurin activity (words) (calcineurin [4]; listed as FK506): significantly reduced CD3/CD28-mediated calcineurin activity; also recorded: blocked stimulation
effect on fold change in calcineurin activity with anti-CD3 stimulation (calcineurin [2]; control PBMCs incubated with increasing amounts before anti-CD3 stimulation): inhibited by tacrolimus in a dose-dependent fashion; also recorded: inhibited in control PBMCs in a dose-responsive manner
effect of pre-treatment on PMA-stimulated calcineurin activity (calcineurin [1]): blocked stimulation by PMA

Compound: anti-CD3: anti-CD3 (Muromonab, 10 μg/ml) antibodies for TCR-specific activation without co-stimulation
stimulation of calcineurin activity (calcineurin [2]; control PBMCs): observed only in control PBMCs
